Read-outs that look alike come from different tables or passages of the source. Each block holds one molecule with its values, some of them ahead of it.
Columns and labels:
[1] = Tetrazine-induced deprotection (TCO activation) under various conditions
Description: In addition, the tetrazine-induced TCO activation was studied under the same conditions. […] In addition to amines, also hydroxy and carboxylic acids form stable conjugates with TCO and can subsequently be cleaved in a range of conditions.
The TCO stock solution (10 μL 25 mM in acetonitrile; 2.5*10^−7 mol) was added to a solution of the specific condition (100 μL). A solution of 3,6-dimethyl-1,2,4,5-tetrazine (8, 20 uL 25 mM in acetonitrile; 5.0*10^−7 mol) was added, and the mixture was stirred at the specific condition for a certain amount of time. The reaction was monitored by HPLC-MS/PDA analysis and/or GC-MS analysis, and the percentage of deprotection was estimated.
(§1) Conditions: A) in acetonitrile with 5 equivalents of pyridine per TCO at 20° C.
(§2) B) in acetonitrile with 5 equivalents of DIPEA per TCO at 20° C. C) in acetonitrile with 5 equivalents of piperidine per TCO at 20° C. D) in acetonitrile with 5 equivalents of n-butylamine per TCO at 20° C. E) in acetonitrile with 5 equivalents of 2-mercaptoethanol per TCO at 20° C. F) in tetrahydrofuran with 5 equivalents of triphenylphosphine per TCO at 20° C. G) in acetonitrile with 5 equivalents of DCC per TCO at 20° C. H) in acetonitrile with 5 equivalents of PyBOP per TCO at 20° C. I) in acetonitrile with 1 v % of formic acid at 20° C. J) in chloroform at 20° C. K) in chloroform with 1 v % of formic acid at 20° C. L) in chloroform with 1 v % of trifluoroacetic acid at 20° C. M) in chloroform with 10 v % of trifluoroacetic acid at 20° C. N) in chloroform with 33 v % of trifluoroacetic acid at 20° C. Z) in 25% acetonitrile in water at 20° C.

[2] = Stability of a TCO compound under various conditions (HPLC-MS/PDA and/or GC-MS); format: physicochemical; details: for half-life at 2.3 mM: read-out: Stability of TCO: t1/2
Description: The TCO stock solution (10 μL 25 mM; 2.5*10^−7 mol) was added to a solution of the specific condition (100 μL). The mixture was stirred at the specific condition for a certain amount of time, and then the fate of the TCO compound was monitored by HPLC-MS/PDA analysis and/or GC-MS analysis, and an estimation of its stability was made.
as §1
as §2, with “I) in acetonitrile with 1 v % of formic acid at 20° C.” left out, “K) in chloroform with 1 v % of formic acid at 20° C.” left out

[3] = Tetrazine-induced doxorubicin release from Axial-TCO-1-Doxorubicin in serum (HPLC-MS/PDA); set-up: species or system mouse; details: 37° C.
Description: (§3) In a similar fashion as Example 3, the release of doxorubicin from TCO-1-doxorubucin as induced by tetrazines 1,8,9 in PBS/ACN and in serum was measured.
Serum experiments were conducted as follows:
TCO-1-doxorubucin (6.25×10^−8 mol) was dissolved in DMSO (0.050 mL), and PBS (0.475 mL) was added slowly in aliquots of 0.010 mL, followed by mouse serum (0.475 mL). […] Subsequently, cold MeCN (0.200 mL) was added, followed by centrifugation at 13400 rpm for 5 min. The supernatant was used for further analysis by HPLCMS/PDA analysis to determine the release of doxorubicin.

[4] = Tetrazine-induced doxorubicin release from Axial-TCO-1-Doxorubicin in PBS/MeCN (LCMS)
Description: PBS/MeCN (1 mL, 3/1), preheated at 37° C. and TCO-2-doxorubicin (10 μL of a 2.5 mM solution in DMSO, 1 eq.) were added to a preheated injection vial. Tetrazine (10 μL of a 25 mM solution in DMSO, 10 eq.) was added and the vial was vortexed. After incubation for 1 hour at 37° C., the vial was placed in LC-MS autosampler at 10° C. LC-MS analysis was performed using a 5% to 100% H2O/MeCN gradient over 11 minutes with a C18 reverse-phase column at 35° C. A control sample containing only TCO-2-doxorubicin (1 eq), as well as a sample containing only doxorubicin (1 eq.), was analyzed under the same conditions. All tetrazine containing samples were measured twice and the doxorubicin control sample was run after every three other samples during an overnight program. The peak area of released dox was divided by the peak area of TCO-2-doxorubicin or doxorubicin reference signals and multiplied by 100 to calculate the percentage of release. The calculated percentage of release was corrected when it was observed that the TCO-2-doxorubicin was not fully converted to inv-DA adduct(s). This was done by quantification of remaining dox-TCO, but full conversion was almost always observed. Peak areas (used for doxorubin quantification) were determined at A=470-500 nm where characteristic doxorubicin absorption takes place and peak integration was done by hand.
as §3

[5] = 0.1M HCOOH buffer, pH = 2.0 for 2 day, 20° C.
[6] = 0.1M NH3 buffer, pH = 11 for 5 day, 20° C.
[7] = 0.1M NH4OAc buffer, pH = 7.0 for 5 day, 20° C.
[8] = 0.1M NH4OAc buffer, pH = 8.0 for 8 day, 20° C.
[9] = 0.1M NH4OAc buffer, pH = 9.0 for 8 day, 20° C.
[10] = 0.1M NH4OAc buffer, pH = 10.0 for 8 day, 20° C.
[11] = 10% MeCN in H2O at 70° C. for 5 day
[12] = 10% MeCN in H2O for 5 day, 20° C.
[13] = with 5 eq. of DIPEA in MeCN for 16 h, 20° C.
[14] = with 5 eq. of HCOOH in MeCN for 16 h, 20° C.
[15] = with 5 eq. of PyBOP in MeCN for 16 h, 20° C.
[16] = with 5 eq. of pyridine in MeCN for 16 h, 20° C.

Stability of TCO [2, 5]: stable
Stability of TCO: cyclization [2, 6]: < 5%
Stability of TCO [2, 7]: stable
Stability of TCO [2, 8]: stable
Stability of TCO [2, 9]: stable
Stability of TCO [2, 10]: stable
Stability of TCO: cyclization [2, 11]: <5%
Stability of TCO [2, 12]: stable
SMILES: COc1cc(COC(=O)NC2CC/C=C/CC[C@@H]2N)cc(OC)c1OC (stereo partly shown)
Deprotection (%) [1, 5]: 0%
Deprotection (%) [1, 6]: 87%
Deprotection (%) [1, 7]: 0%
Deprotection (%) [1, 8]: 0%
Deprotection (%) [1, 9]: 25%
Deprotection (%) [1, 10]: 81%
Deprotection (%) [1, 11]: 50%
Deprotection (%) [1, 12]: 0%

SMILES: N[C@H]1CC/C=C/CCC1NC(=O)Oc1ccccc1 (stereo partly shown)
Deprotection (%) [1, 13]: 98.8%
Deprotection (%) [1, 14]: 33.9%
Deprotection (%) [1, 15]: 24.4%
Deprotection (%) [1, 16]: 71.7%
half-life at 2.3 mM ([2]; 0.1M NH4OAc buffer, pH = 7.0, 20° C.): 80 h
half-life at 2.3 mM ([2]; 0.1M NH4OAc buffer, pH = 8.0, 20° C.): 17 h
half-life at 2.3 mM ([2]; 0.1M NH4OAc buffer, pH = 9.0, 20° C.): 5.3 h
Stability of TCO: cyclization [2, 13]: 6.7%
Stability of TCO: cyclization [2, 14]: 1.9%
Stability of TCO: cyclization [2, 15]: 5.9%
Stability of TCO: cyclization [2, 16]: 2.6%

SMILES: NC1/C=C/CCCCC1NC(=O)Oc1ccccc1 (stereo not shown)
half-life at 2.3 mM ([2]; in PBS buffer, 20° C.): 65 h

SMILES: NC1CCCC/C=C/C1NC(=O)Oc1ccccc1 (stereo not shown)
half-life at 2.3 mM ([2]; in PBS buffer, 20° C.): 29 h

SMILES: COc1cccc2c1C(=O)c1c(O)c3c(c(O)c1C2=O)C[C@@](O)(C(=O)CO)C[C@@H]3O[C@H]1CC(NC(=O)O[C@H]2/C=C/CCCCC2)[C@H](O)C(C)O1 (stereo partly shown) [Axial-TCO-1-Doxorubicin]
Doxorubicin release (%) from Axial-TCO-1-Doxorubicin without tetrazine ([3]; no tetrazine, serum (24 h)): 0%
Doxorubicin release (%) from Axial-TCO-1-Doxorubicin without tetrazine ([4]; no tetrazine, 37° C., PBS (72 h), column PBS/MeCN (3/1)): 0%

SMILES: Cc1nnc(C)nn1 [tetrazine 8, 3,6-dimethyl-1,2,4,5-tetrazine]
Doxorubicin release (%) from Axial-TCO-1-Doxorubicin ([3]; 10 equiv. tetrazine, 50% serum, LCMS at 4 h, n = 3): 75 ± 4%
Doxorubicin release (%) from Axial-TCO-1-Doxorubicin ([4]; 10 equiv. tetrazine, 25% MeCN in PBS (PBS/MeCN 3/1), 37° C., LCMS at 4 h, n = 3): 79 ± 3%
release of doxorubicin from TCO-1-doxorubucin, comparison of tetrazines 1, 8, 9 ([4]; PBS/ACN and serum): highest release

— patent publication US20150297741A1, “BIO-ORTHOGONAL DRUG ACTIVATION” (TAGWORKS PHARMACEUTICALS B.V., priority 2012, published 2015)
